Results reported in patent US7875607B2, “7,8-bicycloakyl-chroman derivatives” (Ampere Life Sciences, Inc., priority 2004, dated 2011).

Tested on: IL-1beta production in mouse microglial cell line
Experiment: Interleukin-1β microglial cell assay
Assay type: cell-based
Details: LPS 10 μg/ml and IFN gamma 10 ng/ml, 24 hours, read-out: EC50, inhibition of IL-1beta production
Description: This assay measures the release of IL-1β from a mouse microglial cell line following an inflammatory challenge with LPS and interferon-gamma. The ability of test articles to inhibit microglial cell activation and IL-1β release is determined by co-incubation of the test article with the inflammatory challenge.
Mouse microglial cells were seeded in poly-D-lysine coated 96-well plates at a density of 10,000 cells/well and allowed to attach for 24 hours. Cells were stimulated by addition of LPS (10 μg/ml) and IFN gamma (10 ng/ml) in the presence or absence of test article. The cells were then incubated for 24 hours at 37° C., after which time the media was removed and used for cytokine determination as described below.
Viability of mouse microglial cells after exposure to the test article was determined using a fluorescent viability dye, Cell Tracker Green. Cell Tracker Green was used at a working concentration of 5 μM in 1×HBSS. Cells were washed once with HBSS (200 μl/well) and 100 μl Cell Tracker Green was added to each well. Cells were then incubated at 37° C. for 30 minutes, after which time the Cell Tracker was removed and the cells were washed once with HBSS (200 μl/well). 100 μl fresh HBSS was added to each well and the plate was read on a Fluoroskan plate reader using an excitation wavelength of 485 nm and an emission wavelength of 538 nm.
Solutions: • Wash Buffer: PBS 1 L+500 μl Tween 20 (final 0.05%) pH 7.2-7.4. • Blocking Buffer: 500 ml PBS+5 g BSA V (1%)+25 g Sucrose (5%)+0.25 g Sodium Azide (0.05%). • Reagent Diluent: 500 ml PBS+5 g BSA V (1%) pH 7.2-7.4 and filter sterilize through 0.2 μm. • Stop Solution: 2N sulfuric acid.
Duo Set Preparations: • 1. The IL-1β capture antibody was reconstituted in 1 ml of PBS to give a final concentration of 720 μg/ml, and the working concentration was 4 μg/ml. For coating one 96-well plate (at 100 μl/well) 56 μl of the 720 μg/ml stock was diluted into 10 ml of PBS. • 2. The IL-1β standards were reconstituted in 0.5 ml of Reagent Diluent (70 ng/ml). For a high standard of 1 ng/ml (2 wells at 100 μl each+enough for series dilution) 7.1 μl of the 70 ng/ml standard were diluted into 0.5 ml of Reagent Diluent • 3. The IL-1β detection antibody was reconstituted in 1 ml of Reagent Diluent to give a final concentration of 18 μg/ml and the working concentration is 100 ng/ml. For one 96-well plate (at 100 μl/well) 56 μl of the 18 μg/ml stock was diluted into 10 ml of Reagent Diluent.
• The Costar EIA Hi-binding plate was coated with capture antibody at 4 μg/ml. Each well was coated with 100 μl, and the plate was sealed and incubated overnight at room temperature. • Each well was aspirated and washed 3× with Wash Buffer. Each well was filled to the top, dispensed, and any remaining buffer was removed by inverting the plate and gently blotting against clean paper towels. • Non-specific binding sites were blocked by adding 300 μl of Blocking Buffer to each well, and after sealing incubating for at least 1 hour at room temperature. • After washing the plate was now ready for the samples. Assay Procedure: • 100 μl of either standard or sample were added in each well of the capture-coated and pre-blocked plate. The plate was sealed and incubated for 2 hours at room temperature, followed with washing. • 100 μl of the detection antibody (10 ng/ml) were added to each well. […]

Row | Compound | EC50
1 | CC(C)=CCc1c(O)c2c(c3c1CCC(C)(C)O3)C1CCC2C1 (centres unmarked) [2,2-Dimethyl-5-(3-methyl-but-2-enyl)-3,4,7,8,9,10-hexahydro-7,10-methano-2H-benzo[h]chromen-6-ol] | ≤ 20 µM
2 | CC(C)CCc1c(O)c2c(c3c1CCC(C)(C)O3)C1CCC2C1 (centres unmarked) [2,2-Dimethyl-5-(3-methyl-butyl)-3,4,7,8,9,10-hexahydro-7,10-methano-2H-benzo[h]chromen-6-ol] | ≤ 20 µM
